Measured values reported in ChEMBL document CHEMBL1137482, “Carbonic anhydrase inhibitors: cloning, characterization, and inhibition studies of the cytosolic isozyme III with sulfonamides” (Bioorg Med Chem, 2007).

Target: Carbonic anhydrase 3 (Homo sapiens, UniProt P07451)
Sequence (P07451 whole entry): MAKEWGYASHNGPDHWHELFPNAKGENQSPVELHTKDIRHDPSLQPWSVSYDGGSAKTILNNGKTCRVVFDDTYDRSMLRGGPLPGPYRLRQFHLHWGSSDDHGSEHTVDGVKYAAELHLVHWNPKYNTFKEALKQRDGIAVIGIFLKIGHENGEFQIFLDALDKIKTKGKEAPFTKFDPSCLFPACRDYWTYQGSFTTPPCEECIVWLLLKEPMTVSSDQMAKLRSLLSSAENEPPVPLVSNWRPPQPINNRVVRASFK

Structure (SMILES) | Ki [µM]
Nc1nnc(S(N)(=O)=O)s1 | 148
Nc1ccc(S(=O)(=O)NCc2ccc(S(N)(=O)=O)cc2)cc1 | 114
Nc1ccc(S(=O)(=O)Nc2nnc(S(N)(=O)=O)s2)cc1 | 18.1
Cn1nc(S(N)(=O)=O)sc1=N | 198
Nc1ccc(S(N)(=O)=O)cc1F | 2070
NS(=O)(=O)c1ccc(CO)cc1 | 4890
Nc1ccc(S(N)(=O)=O)cc1Cl | 710
CCNC1CN(CCCOC)S(=O)(=O)c2sc(S(N)(=O)=O)cc21 (single isomer, unassigned) [BRINZOLAMIDE] | 110
Cc1ccc(-c2cc(C(F)(F)F)nn2-c2ccc(S(N)(=O)=O)cc2)cc1 [CELECOXIB] | 154
NS(=O)(=O)c1cc(Cl)c(Cl)c(S(N)(=O)=O)c1 [DICHLORPHENAMIDE] | 684
NCc1ccc(S(N)(=O)=O)cc1 [MAFENIDE] | 681
Cc1ccc(S(N)(=O)=O)cc1 [P-TOLUENESULFONAMIDE] | 7.9
CC1(C)O[C@@H]2[C@@H](CO[C@@]3(COS(N)(=O)=O)OC(C)(C)O[C@@H]23)O1 [TOPIRAMATE] | 780

Further molecules by falling Ki, results first:

Ki [µM] | Structure (SMILES)
2630 | Nc1nccc(Nc2ccc(S(N)(=O)=O)cc2)n1
1190 | NS(=O)(=O)c1ccc(CCO)cc1
1000 | O=C1NS(=O)(=O)c2ccccc21 [SACCHARIN]
988 | Nc1ccc(S(N)(=O)=O)cc1 [SULFANILAMIDE]
887 | Nc1ccccc1S(N)(=O)=O
140 | Nc1ccc(S(=O)(=O)NCCc2ccc(S(N)(=O)=O)cc2)cc1
11.3 | NS(=O)(=O)c1ccc(C(=O)O)cc1 [CARZENIDE]
10.6 | CCN1CCCC1CNC(=O)c1cc(S(N)(=O)=O)ccc1OC (configuration not stated) [SULPIRIDE]
10.4 | NS(=O)(=O)c1ccc(S(=O)(=O)Nc2cccc3c(Cl)c[nH]c23)cc1
